A word on the half-life: it is how long it takes for the measured level to halve. Usually CC50 stands for the concentration at which the toxic effect on the cells reaches its halfway point.

Experimental findings from ChEMBL document CHEMBL6078648, “Prioritization of Eleven-Nineteen-Leukemia Inhibitors as Orally Available Drug Candidates for Acute Myeloid Leukemia” (J Med Chem, 2024) are described below.

Activity calls are given as the source filed them. The calls are words filed in the database; no cut-off is given here.

The target in series [1] is T1, Protein ENL (Homo sapiens) (UniProt Q03111).
T1 sequence (whole entry): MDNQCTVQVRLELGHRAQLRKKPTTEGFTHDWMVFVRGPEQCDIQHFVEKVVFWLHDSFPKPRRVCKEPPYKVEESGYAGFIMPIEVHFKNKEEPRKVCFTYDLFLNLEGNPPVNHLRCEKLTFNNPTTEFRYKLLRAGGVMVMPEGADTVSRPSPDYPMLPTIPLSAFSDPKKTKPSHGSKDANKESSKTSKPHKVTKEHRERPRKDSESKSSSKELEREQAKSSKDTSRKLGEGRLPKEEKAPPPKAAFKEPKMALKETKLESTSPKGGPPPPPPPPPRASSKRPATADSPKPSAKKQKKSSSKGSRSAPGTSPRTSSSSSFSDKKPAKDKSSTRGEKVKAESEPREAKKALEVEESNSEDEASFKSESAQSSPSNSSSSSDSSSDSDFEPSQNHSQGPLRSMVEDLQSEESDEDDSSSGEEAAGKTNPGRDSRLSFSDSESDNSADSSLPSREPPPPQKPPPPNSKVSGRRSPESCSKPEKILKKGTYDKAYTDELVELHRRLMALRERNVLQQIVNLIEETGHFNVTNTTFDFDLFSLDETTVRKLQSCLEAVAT
In words: Binding affinity to ENL YEATS domain (unknown origin) (1 to 148 residues) expressed in HEK293 cells assessed as […] incubated for 2 hrs by NanoBRET assay. Conditions: dose <= 100.0 µM. Type of series: cell-based.

In series [2] the target is T1, Protein ENL (Homo sapiens). In words: Inhibition of ENL YEATS domain (unknown origin) (1 to 148 residues) preincubated with compound for 1 hr followed by alpha-bead addition and measured after 30 mins under dark condition by Alphascreen assay. To be noted: time 90.0 min. (In general: In Alpha technology, singlet oxygen from a donor bead excites a nearby acceptor bead.)

In series [3] the test system is MOLM-13. In words: Cytotoxicity against human MOLM-13 cells assessed as cell viability upto 100 uM incubated for 72 hrs by CCK-8 assay. Type of series: functional, cell-based. (In general: Tetrazolium assays rely on reduction of a dye to a coloured formazan, in cell work by metabolically active cells.)
For series [4], the system named is MV4-11. In words: Cytotoxicity against human MV4-11 cells assessed as cell viability upto 100 uM incubated for 72 hrs by CCK-8 assay. Type of series: functional, cell-based.
The subject of series [5] is MOLM-13. In words: Cytotoxicity against human MOLM-13 cells assessed as cell viability incubated for 8 days by CCK-8 assay. Type of series: functional.
For series [6], the system named is MV4-11. In words: Cytotoxicity against human MV4-11 cells assessed as cell viability incubated for 8 days by CCK-8 assay. Type of series: functional.
A short description of series [7]: Metabolic stability in mouse liver microsome assessed as half life. In kind it is ADME. To be noted: liver microsomes. (In general: Liver microsomes are a subcellular fraction often used to study metabolism.)
A short description of series [8]: Metabolic stability in human plasma assessed as parent compound remaining measured after 1 hrs by HPLC-MS/MS analysis. In kind it is ADME, cell-free.
The nature of series [9]: Cytotoxicity against human HEK293T cells assessed as cell viability incubated for 8 days by CCK-8 assay. In kind it is toxicity, cell-based, HEK-293T. To be noted: time 8 day.
The subject of series [10] is Jurkat. In words: Antiproliferative activity against human Jurkat cells assessed as reduction in cell proliferation at 1 uM measured upto 2 weeks. In kind it is functional, cell-based.
The nature of series [11]: Metabolic stability in human plasma assessed as parent compound remaining measured after 2 hrs by HPLC-MS/MS analysis. Type of series: ADME, cell-free.
For series [12], the system named is Jurkat. Kind of series: Cytotoxicity against human Jurkat cells assessed as reduction in cell viability at 10 uM incubated for 8 days by CCK-8 assay. Type of series: functional, cell-based. To be noted: time 8.0 day.
For series [13], the system named is HEK-293T. Kind of series: Cytotoxicity against HEK293T cells assessed as reduction in cell viability at 10 uM incubated for 8 days by CCK-8 assay. In kind it is toxicity, cell-based. To be noted: human, 192 h, time 8 day.
Series [14] has as its system Jurkat. Kind of series: Cytotoxicity against human Jurkat cells assessed as reduction in cell viability at 16 uM incubated for 8 days by CCK-8 assay. Conditions: time 8.0 day. In kind it is functional, cell-based.
Series [15] deals with HEK-293T. In words: Cytotoxicity against HEK293T cells assessed as reduction in cell viability at 16 uM incubated for 8 days by CCK-8 assay. In kind it is toxicity, cell-based. Conditions: human, 192 h, time 8 day.
In series [16] the test system is Jurkat. In words: Cytotoxicity against human Jurkat cells assessed as cell viability incubated for 72 hrs by CCK-8 assay. In kind it is functional.
Series [17] has as its system MOLM-13. Kind of series: Induction of cell cycle arrest in human MOLM-13 cells assessed as increase in accumulation of cells at G1 phase at 1 to 10 uM incubated for 72 hrs by PI staining based flow cytometric analysis. Type of series: functional. Conditions: dose 1-10 µM.
The subject of series [18] is MV4-11. Kind of series: Induction of cell cycle arrest in human MV4-11 cells assessed as increase in accumulation of cells at G1 phase at 1 to 10 uM incubated for 72 hrs by PI staining based flow cytometric analysis. In kind it is functional. Conditions: dose 1-10 µM.
Series [19] deals with T1, Protein ENL (Homo sapiens). Kind of series: Binding affinity to ENL in human MOLM-13 cells assessed as increase in protein thermal stabilization at 10 uM incubated for 3 to 6 hrs by CETSA analysis. In kind it is cell-based. To be noted: time 3-6 hrs.
Series [20] has as its target T1, Protein ENL (Homo sapiens). In words: Binding affinity to ENL in human MV4-11 cells assessed as increase in protein thermal stabilization at 10 uM incubated for 3 to 6 hrs by CETSA analysis. Type of series: cell-based. Conditions: time 3-6 hrs.
Series [21] relates to MOLM-13. In words: Downregulation of HOXA9 expression in human MOLM-13 cells at 1 uM measured for 72 hrs by qRT-PCR analysis. In kind it is functional, cell-based.
Series [22] has as its system MOLM-13. In words: Downregulation of HOXA10 expression in human MOLM-13 cells at 1 uM measured for 72 hrs by qRT-PCR analysis. Type of series: functional, cell-based.
Series [23] concerns MOLM-13. Kind of series: Downregulation of MEISI expression in human MOLM-13 cells at 1 uM measured for 72 hrs by qRT-PCR analysis. In kind it is functional, cell-based.
Series [24] has as its system MOLM-13. In words: Downregulation of MYB expression in human MOLM-13 cells at 1 uM measured for 72 hrs by qRT-PCR analysis. Type of series: functional, cell-based.
The test system of series [25] is MOLM-13. In words: Downregulation of MYC expression in human MOLM-13 cells at 1 uM measured for 72 hrs by qRT-PCR analysis. Type of series: functional, cell-based.
Series [26] relates to MV4-11. Kind of series: Downregulation of HOXA9 expression in human MV4-11 cells at 1 uM measured for 72 hrs by qRT-PCR analysis. Type of series: functional, cell-based.
Series [27] relates to MV4-11. Kind of series: Downregulation of HOXA10 expression in human MV4-11 cells at 1 uM measured for 72 hrs by qRT-PCR analysis. In kind it is functional, cell-based.
The subject of series [28] is MV4-11. Kind of series: Downregulation of MEISI expression in human MV4-11 cells at 1 uM measured for 72 hrs by qRT-PCR analysis. Type of series: functional, cell-based.
The subject of series [29] is MV4-11. Kind of series: Downregulation of MYB expression in human MV4-11 cells at 1 uM measured for 72 hrs by qRT-PCR analysis. In kind it is functional, cell-based.
For series [30], the system named is MV4-11. In words: Downregulation of MYC expression in human MV4-11 cells at 1 uM measured for 72 hrs by qRT-PCR analysis. In kind it is functional, cell-based.
Series [31] in a line: Half life in CD-1 mouse at 20 mg/kg, iv measured upto 24 hrs by HPLC-MS/MS analysis. Type of series: ADME, organism-based. Conditions: in vivo.
Series [32] can be described thus: Toxicity in NSG mouse implanted with human MOLM-13 assessed as body weight loss at 200 mg/kg, po qd measured every 2 to 3 days. Type of series: organism-based. To be noted: in vivo, time 2-3 day.
A short description of series [33]: Toxicity in NSG mouse implanted with human MOLM-13 assessed as tolerability at 200 mg/kg, po qd measured every 2 to 3 days. In kind it is organism-based. To be noted: in vivo, time 2-3 day.
In series [34] the test system is MOLM-13. Kind of series: Antitumor activity against human MOLM-13 cells xenografted in NSG mouse assessed as reduction in tumor growth at 200 mg/kg, po qd measured after 13 days. Type of series: functional, organism-based. Conditions: time 13.0 day.
The test system of series [35] is MOLM-13. Kind of series: Antitumor activity against human MOLM-13 cells xenografted in NSG mouse assessed as reduction in tumor burden at 400 mg/kg, po qd measured after 13 days. Type of series: functional, organism-based. To be noted: time 13.0 day.
A short description of series [36]: Toxicity in NSG mouse implanted with human MOLM-13 assessed as body weight loss at 400 mg/kg, po qd measured every 2 to 3 days and measured at day 15. To be noted: in vivo, 360 h, time 15 day. Type of series: organism-based.
The nature of series [37]: Toxicity in NSG mouse implanted with human MOLM-13 assessed as animal survival at 400 mg/kg, po qd measured every 2 to 3 days and measured at day 15. Type of series: organism-based. To be noted: in vivo, 360 h, time 15 day.
Series [38] relates to Jurkat. Kind of series: Cytotoxicity against human Jurkat cells assessed as cell viability incubated for 8 days by CCK-8 assay. Type of series: functional. Conditions: 192 h, time 8 day.

`O=C(CCC1=[N+]2C(=Cc3ccc(-c4ccc[nH]4)n3[B-]2(F)F)C=C1)NCCCC(=O)Nc1cccc(-c2cn3cc(C(=O)NC4CCC4)ccc3n2)c1`: the Activity result in [1] was “Dose-dependent-effect”.

For the compound `O=C(NCc1ccc(CN2CCC2)cc1)c1ccc2nncn2c1`, the inhibition entry in series [2] was “Active”.

Take `O=C(NCc1ccc(CNc2ncc(F)cn2)cc1)c1ccc2nncn2c1`: the outcome in the series on MOLM-13 [3] and in the series on MV4-11 [4] was Active. The result in the series with MOLM-13 [5] (time 8.0 day) and in the series on MV4-11 [6] (time 8.0 day) was inactive.

`O=C(NC1CCC1)c1ccc2nc(-c3cccc(NS(=O)(=O)NCCN4CCCCC4)c3)cn2c1`: in series [7], the half-life was 9.3 min.

Turning to `C[C@H]1CCCN1Cc1cc2cnc(NC(=O)c3ccc4nncn4c3)cc2[nH]1`, in series [8], the Stability is reported as greater than 60%. The CC50 at 192 h in series [9] is greater than 64 µM. In addition, the result in the series on Jurkat [10] was inactive.

As for `O=C(NCc1ccc(CN2CCOCC2)cc1)c1ccc2nncn2c1`, in series [2], the inhibition entry is “Active”.

`CC(C)C1CCN1Cc1ccc(CNC(=O)c2ccc3nncn3c2)cc1` (configuration not stated): the Stability in series [11] is 95.58%; in [8] it was greater than 60%. Further, the result in the series with MOLM-13 [3], in the series on MV4-11 [4], in the series on Jurkat [12], in the series with Jurkat [14], in the series with MOLM-13 [17] and with MV4-11 [18] was Active. The outcome (in series [19]; in [20]; in the series on MOLM-13 [21]; in the series with MOLM-13 [22]; in the series on MOLM-13 [23]; in the series with MOLM-13 [24]) was Active. For the same compound, the outcome in the series on MOLM-13 [25], in the series with MV4-11 [26], in the series with MV4-11 [27], with MV4-11 [28], with MV4-11 [29] and in the series on MV4-11 [30] was Active. In addition, in the series with MOLM-13 [35], the outcome was Active. For the same compound, the Activity result (with HEK-293T [13]; in the series with HEK-293T [15]; in series [32]; in series [33]; in series [36]; in [37]) was “Non-toxic” throughout. Besides, in the series on Jurkat [16], the CC50 was greater than 64 µM. Besides, the result with Jurkat [10] and with MOLM-13 [34] was inactive. In series [31], this compound showed a half-life of 1.85 h.

Take `CC(C)C1CCN1Cc1cc2cnc(NC(=O)c3ccc4nncn4c3)cc2[nH]1` (configuration not stated): the CC50 was less than 4 µM in the series on MOLM-13 [5] (MOLM-13, 192 h, time 8 day); less than 4 µM in the series with MV4-11 [6] (MV4-11, 192 h, time 8 day); greater than 64 µM in the series with Jurkat [38]. Moreover, the CC50 at 192 h in series [9] is greater than 64 µM. Also, the result in the series with Jurkat [10] was inactive.
